Test results as given in the kinase profiling compilation of Christmann-Franck et al. (2016).

Key:
Test in all cases: KINOMEscan competition binding
Details in all cases: compound 10.0 µM
AURKC (human) = AURKC (human) (UniProt Q9UQB9)
RPS6KA2 KD1 (human) = RPS6KA2 KD1 (human) (UniProt Q15349)
TGFBR1 (human) = TGFBR1 (human) (UniProt P36897)
MAP3K7 (human) = MAP3K7 (human) (UniProt O43318)
CDK15 (human) = CDK15 (human) (UniProt Q96Q40)
AAK1 (human) = AAK1 (human) (UniProt Q2M2I8)
CAMKK2 (human) = CAMKK2 (human) (UniProt Q96RR4)
STK32C (human) = STK32C (human) (UniProt Q86UX6)
MAP3K9 (human) = MAP3K9 (human) (UniProt P80192)
TAOK3 (human) = TAOK3 (human) (UniProt Q9H2K8)
CAMK2A (human) = CAMK2A (human) (UniProt Q9UQM7)
PIM3 (human) = PIM3 (human) (UniProt Q86V86)
NEK2 (human) = NEK2 (human) (UniProt P51955)
AKT3 (human) = AKT3 (human) (UniProt Q9Y243)
SIK1 (human) = SIK1 (human) (UniProt P57059)
NUAK2 (human) = NUAK2 (human) (UniProt Q9H093)
FGFR4 (human) = FGFR4 (human) (UniProt P22455)
MYO3A (human) = MYO3A (human) (UniProt Q8NEV4)
AKT2 (human) = AKT2 (human) (UniProt P31751)
MYLK4 (human) = MYLK4 (human) (UniProt Q86YV6)
CSNK1G2 (human) = CSNK1G2 (human) (UniProt P78368)
IKBKB (human) = IKBKB (human) (UniProt O14920)
GSK3A (human) = GSK3A (human) (UniProt P49840)
MAPK10 (human) = MAPK10 (human) (UniProt P53779)
STK35 (human) = STK35 (human) (UniProt Q8TDR2)
ACVR1 (human) = ACVR1 (human) (UniProt Q04771)
CLK2 (human) = CLK2 (human) (UniProt P49760)
STK4 (human) = STK4 (human) (UniProt Q13043)
STK24 (human) = STK24 (human) (UniProt Q9Y6E0)
CDK19 (human) = CDK19 (human) (UniProt Q9BWU1)
PIP5K1A (human) = PIP5K1A (human) (UniProt Q99755)
BMPR1B (human) = BMPR1B (human) (UniProt O00238)
PKMYT1 (human) = PKMYT1 (human) (UniProt Q99640)
FES (human) = FES (human) (UniProt P07332)
PTK2 (human) = PTK2 (human) (UniProt Q05397)
EPHA6 (human) = EPHA6 (human) (UniProt Q9UF33)
NLK (human) = NLK (human) (UniProt Q9UBE8)
MERTK (human) = MERTK (human) (UniProt Q12866)
EPHB4 (human) = EPHB4 (human) (UniProt P54760)
LCK (human) = LCK (human) (UniProt P06239)
Sequence of LCK (human) (P06239 whole entry, looked up): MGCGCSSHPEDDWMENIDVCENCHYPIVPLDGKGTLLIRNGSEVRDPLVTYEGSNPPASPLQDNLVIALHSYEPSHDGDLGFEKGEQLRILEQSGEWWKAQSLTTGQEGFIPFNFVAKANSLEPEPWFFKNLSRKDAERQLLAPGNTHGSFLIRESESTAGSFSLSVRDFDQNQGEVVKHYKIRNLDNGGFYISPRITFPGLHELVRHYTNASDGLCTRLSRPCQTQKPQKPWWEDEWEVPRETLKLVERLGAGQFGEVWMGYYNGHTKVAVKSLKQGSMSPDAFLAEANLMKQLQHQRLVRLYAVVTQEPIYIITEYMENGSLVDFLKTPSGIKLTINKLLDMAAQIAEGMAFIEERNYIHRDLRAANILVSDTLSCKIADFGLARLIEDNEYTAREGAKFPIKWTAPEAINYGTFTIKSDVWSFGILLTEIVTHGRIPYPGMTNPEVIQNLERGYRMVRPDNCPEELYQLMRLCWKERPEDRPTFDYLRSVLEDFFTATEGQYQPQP

Sequence of PTK2 (human) (Q05397 whole entry, looked up): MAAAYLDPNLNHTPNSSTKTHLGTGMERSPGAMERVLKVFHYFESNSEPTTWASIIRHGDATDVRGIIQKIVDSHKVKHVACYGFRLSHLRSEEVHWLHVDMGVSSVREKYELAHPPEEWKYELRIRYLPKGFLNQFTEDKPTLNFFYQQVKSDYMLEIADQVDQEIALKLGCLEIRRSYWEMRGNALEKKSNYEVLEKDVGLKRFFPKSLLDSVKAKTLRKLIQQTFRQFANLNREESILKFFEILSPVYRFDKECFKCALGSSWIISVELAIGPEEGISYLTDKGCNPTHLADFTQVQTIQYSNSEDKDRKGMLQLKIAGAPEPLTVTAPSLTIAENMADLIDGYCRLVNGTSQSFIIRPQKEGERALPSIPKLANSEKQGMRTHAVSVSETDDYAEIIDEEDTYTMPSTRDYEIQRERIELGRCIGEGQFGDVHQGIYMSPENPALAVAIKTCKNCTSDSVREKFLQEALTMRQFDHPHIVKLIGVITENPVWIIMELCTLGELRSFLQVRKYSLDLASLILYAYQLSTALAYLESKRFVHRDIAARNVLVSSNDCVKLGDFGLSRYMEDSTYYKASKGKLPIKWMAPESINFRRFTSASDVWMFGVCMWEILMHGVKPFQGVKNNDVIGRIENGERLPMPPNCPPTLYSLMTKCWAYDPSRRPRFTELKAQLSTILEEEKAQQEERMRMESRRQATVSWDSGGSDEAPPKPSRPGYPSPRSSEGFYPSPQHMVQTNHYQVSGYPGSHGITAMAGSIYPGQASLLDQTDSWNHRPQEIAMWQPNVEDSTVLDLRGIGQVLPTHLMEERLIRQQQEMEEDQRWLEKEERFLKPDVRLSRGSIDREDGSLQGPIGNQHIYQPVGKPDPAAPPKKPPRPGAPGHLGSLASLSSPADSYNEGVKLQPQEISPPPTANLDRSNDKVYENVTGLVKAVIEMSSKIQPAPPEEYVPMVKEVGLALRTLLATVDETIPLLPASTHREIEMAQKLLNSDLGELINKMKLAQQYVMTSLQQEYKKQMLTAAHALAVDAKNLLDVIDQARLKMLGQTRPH
Sequence of EPHA6 (human) (Q9UF33 whole entry, looked up): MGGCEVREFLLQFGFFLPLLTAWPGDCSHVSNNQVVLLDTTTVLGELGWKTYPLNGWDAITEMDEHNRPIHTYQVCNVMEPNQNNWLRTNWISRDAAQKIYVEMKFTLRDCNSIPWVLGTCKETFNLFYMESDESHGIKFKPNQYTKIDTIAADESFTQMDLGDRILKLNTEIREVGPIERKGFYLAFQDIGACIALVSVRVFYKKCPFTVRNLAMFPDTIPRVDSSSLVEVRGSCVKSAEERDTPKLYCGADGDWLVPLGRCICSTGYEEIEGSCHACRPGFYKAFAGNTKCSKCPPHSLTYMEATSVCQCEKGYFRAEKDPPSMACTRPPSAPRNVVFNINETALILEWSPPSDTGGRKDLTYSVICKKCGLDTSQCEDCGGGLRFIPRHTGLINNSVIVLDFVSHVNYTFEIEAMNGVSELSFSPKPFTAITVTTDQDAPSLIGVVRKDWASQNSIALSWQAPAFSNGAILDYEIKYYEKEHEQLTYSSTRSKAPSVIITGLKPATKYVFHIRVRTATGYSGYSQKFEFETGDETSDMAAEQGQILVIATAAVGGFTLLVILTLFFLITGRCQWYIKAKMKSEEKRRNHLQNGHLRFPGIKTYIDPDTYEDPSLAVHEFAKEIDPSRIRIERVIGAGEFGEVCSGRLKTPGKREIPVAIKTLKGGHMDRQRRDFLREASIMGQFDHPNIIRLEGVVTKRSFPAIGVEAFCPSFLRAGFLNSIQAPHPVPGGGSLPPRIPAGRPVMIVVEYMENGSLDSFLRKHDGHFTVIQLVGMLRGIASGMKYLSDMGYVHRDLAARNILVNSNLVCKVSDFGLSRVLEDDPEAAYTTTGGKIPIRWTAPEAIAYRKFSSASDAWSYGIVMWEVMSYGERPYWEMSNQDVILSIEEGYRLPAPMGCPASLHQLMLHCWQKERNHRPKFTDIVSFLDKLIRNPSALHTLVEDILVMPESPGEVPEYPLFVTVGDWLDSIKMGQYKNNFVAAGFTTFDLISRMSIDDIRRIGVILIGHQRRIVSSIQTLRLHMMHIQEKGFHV
Sequence of NLK (human) (Q9UBE8 whole entry, looked up): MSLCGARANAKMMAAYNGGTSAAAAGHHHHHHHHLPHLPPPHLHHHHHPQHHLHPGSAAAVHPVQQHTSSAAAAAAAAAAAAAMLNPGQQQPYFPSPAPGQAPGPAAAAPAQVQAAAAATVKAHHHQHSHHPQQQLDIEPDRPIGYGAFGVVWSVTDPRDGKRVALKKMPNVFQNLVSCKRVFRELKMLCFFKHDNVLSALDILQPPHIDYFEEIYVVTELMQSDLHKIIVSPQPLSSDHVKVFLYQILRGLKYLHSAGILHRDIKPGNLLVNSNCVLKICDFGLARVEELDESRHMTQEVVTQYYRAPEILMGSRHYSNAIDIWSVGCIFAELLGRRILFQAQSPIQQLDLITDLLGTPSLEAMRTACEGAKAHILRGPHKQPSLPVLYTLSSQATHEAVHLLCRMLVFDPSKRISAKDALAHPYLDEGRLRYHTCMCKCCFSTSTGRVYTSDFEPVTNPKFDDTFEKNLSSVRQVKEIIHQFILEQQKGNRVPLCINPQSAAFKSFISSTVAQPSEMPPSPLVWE
Sequence of GSK3A (human) (P49840 whole entry, looked up): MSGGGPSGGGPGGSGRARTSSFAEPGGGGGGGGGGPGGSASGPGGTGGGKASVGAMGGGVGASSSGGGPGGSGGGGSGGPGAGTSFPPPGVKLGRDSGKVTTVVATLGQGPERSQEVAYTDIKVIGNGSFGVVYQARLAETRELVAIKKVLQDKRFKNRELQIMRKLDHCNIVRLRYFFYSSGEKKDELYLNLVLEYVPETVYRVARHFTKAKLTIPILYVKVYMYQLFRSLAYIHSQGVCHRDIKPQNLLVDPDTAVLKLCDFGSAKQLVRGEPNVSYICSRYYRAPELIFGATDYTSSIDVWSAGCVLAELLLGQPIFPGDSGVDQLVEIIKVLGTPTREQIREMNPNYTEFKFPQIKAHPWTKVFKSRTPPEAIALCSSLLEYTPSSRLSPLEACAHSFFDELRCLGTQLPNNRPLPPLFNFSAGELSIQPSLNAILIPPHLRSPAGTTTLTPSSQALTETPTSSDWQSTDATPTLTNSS
Sequence of CAMK2A (human) (Q9UQM7 whole entry, looked up): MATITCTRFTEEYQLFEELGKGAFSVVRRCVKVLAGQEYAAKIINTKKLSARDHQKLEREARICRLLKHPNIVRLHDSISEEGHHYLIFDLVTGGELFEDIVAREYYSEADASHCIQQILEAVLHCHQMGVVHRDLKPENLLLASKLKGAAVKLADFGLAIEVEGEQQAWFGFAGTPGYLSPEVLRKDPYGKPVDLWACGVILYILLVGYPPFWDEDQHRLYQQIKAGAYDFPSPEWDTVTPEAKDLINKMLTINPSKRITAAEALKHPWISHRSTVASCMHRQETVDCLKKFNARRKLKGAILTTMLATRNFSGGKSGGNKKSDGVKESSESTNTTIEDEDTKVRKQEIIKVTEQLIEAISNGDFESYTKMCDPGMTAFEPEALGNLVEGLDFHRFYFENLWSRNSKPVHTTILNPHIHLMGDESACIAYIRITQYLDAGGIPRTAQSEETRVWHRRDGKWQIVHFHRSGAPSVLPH
Sequence of CLK2 (human) (P49760 whole entry, looked up): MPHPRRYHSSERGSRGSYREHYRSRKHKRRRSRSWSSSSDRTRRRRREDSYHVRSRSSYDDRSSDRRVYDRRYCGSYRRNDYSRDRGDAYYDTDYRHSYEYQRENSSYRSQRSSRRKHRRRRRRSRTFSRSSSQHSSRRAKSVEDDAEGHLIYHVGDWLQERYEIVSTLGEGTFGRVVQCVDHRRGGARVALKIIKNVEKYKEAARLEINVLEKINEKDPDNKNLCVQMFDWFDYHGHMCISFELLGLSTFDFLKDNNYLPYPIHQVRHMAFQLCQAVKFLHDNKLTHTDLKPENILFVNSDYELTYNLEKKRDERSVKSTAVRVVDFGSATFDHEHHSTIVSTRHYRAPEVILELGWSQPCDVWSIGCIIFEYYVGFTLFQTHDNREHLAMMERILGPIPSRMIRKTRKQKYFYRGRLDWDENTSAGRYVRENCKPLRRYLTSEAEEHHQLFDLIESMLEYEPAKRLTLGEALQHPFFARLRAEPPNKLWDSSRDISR
Sequence of NEK2 (human) (P51955 whole entry, looked up): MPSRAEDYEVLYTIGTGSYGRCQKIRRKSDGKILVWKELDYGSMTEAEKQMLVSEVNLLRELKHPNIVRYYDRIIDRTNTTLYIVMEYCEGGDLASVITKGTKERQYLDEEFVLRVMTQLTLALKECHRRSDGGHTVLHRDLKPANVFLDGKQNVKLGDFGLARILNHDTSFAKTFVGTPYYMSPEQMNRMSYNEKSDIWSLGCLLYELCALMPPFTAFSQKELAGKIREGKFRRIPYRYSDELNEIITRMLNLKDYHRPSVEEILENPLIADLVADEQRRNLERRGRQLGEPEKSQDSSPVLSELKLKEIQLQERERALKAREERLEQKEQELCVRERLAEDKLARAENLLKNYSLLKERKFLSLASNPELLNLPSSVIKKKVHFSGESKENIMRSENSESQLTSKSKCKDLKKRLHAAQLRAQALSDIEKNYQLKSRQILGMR

## Cc1ccc(C(=O)Nc2cccc(C(F)(F)F)c2)cc1Nc1cncc(C(N)=O)c1
AURKC (human)
  kinase still bound, per cent of control: 100%
RPS6KA2 KD1 (human)
  kinase still bound, per cent of control: 100%
TGFBR1 (human)
  kinase still bound, per cent of control: 100%
MAP3K7 (human)
  kinase still bound, per cent of control: 100%
CDK15 (human)
  kinase still bound, per cent of control: 100%
AAK1 (human)
  kinase still bound, per cent of control: 100%
CAMKK2 (human)
  kinase still bound, per cent of control: 100%
STK32C (human)
  kinase still bound, per cent of control: 100%
MAP3K9 (human)
  kinase still bound, per cent of control: 100%
TAOK3 (human)
  kinase still bound, per cent of control: 100%
CAMK2A (human)
  kinase still bound, per cent of control: 100%
PIM3 (human)
  kinase still bound, per cent of control: 100%
NEK2 (human)
  kinase still bound, per cent of control: 100%
AKT3 (human)
  kinase still bound, per cent of control: 100%
SIK1 (human)
  kinase still bound, per cent of control: 100%
NUAK2 (human)
  kinase still bound, per cent of control: 100%
FGFR4 (human)
  kinase still bound, per cent of control: 100%
MYO3A (human)
  kinase still bound, per cent of control: 100%
AKT2 (human)
  kinase still bound, per cent of control: 100%
MYLK4 (human)
  kinase still bound, per cent of control: 100%
CSNK1G2 (human)
  kinase still bound, per cent of control: 100%
IKBKB (human)
  kinase still bound, per cent of control: 100%
GSK3A (human)
  kinase still bound, per cent of control: 100%
MAPK10 (human)
  kinase still bound, per cent of control: 100%
STK35 (human)
  kinase still bound, per cent of control: 100%
ACVR1 (human)
  kinase still bound, per cent of control: 100%
CLK2 (human)
  kinase still bound, per cent of control: 100%
STK4 (human)
  kinase still bound, per cent of control: 100%
STK24 (human)
  kinase still bound, per cent of control: 100%
CDK19 (human)
  kinase still bound, per cent of control: 25%
PIP5K1A (human)
  kinase still bound, per cent of control: 100%
BMPR1B (human)
  kinase still bound, per cent of control: 100%
PKMYT1 (human)
  kinase still bound, per cent of control: 100%
FES (human)
  kinase still bound, per cent of control: 100%
PTK2 (human)
  kinase still bound, per cent of control: 100%
EPHA6 (human)
  kinase still bound, per cent of control: 100%
NLK (human)
  kinase still bound, per cent of control: 100%
MERTK (human)
  kinase still bound, per cent of control: 100%
EPHB4 (human)
  kinase still bound, per cent of control: 6.9%
LCK (human)
  kinase still bound, per cent of control: 1.9%

## OCCCNc1cc(-c2ccnc(Nc3cccc(Cl)c3)n2)ccn1
AURKC (human)
  kinase still bound, per cent of control: 100%
RPS6KA2 KD1 (human)
  kinase still bound, per cent of control: 100%
TGFBR1 (human)
  kinase still bound, per cent of control: 100%
MAP3K7 (human)
  kinase still bound, per cent of control: 100%
CDK15 (human)
  kinase still bound, per cent of control: 100%
AAK1 (human)
  kinase still bound, per cent of control: 21%
CAMKK2 (human)
  kinase still bound, per cent of control: 100%
STK32C (human)
  kinase still bound, per cent of control: 100%
MAP3K9 (human)
  kinase still bound, per cent of control: 100%
TAOK3 (human)
  kinase still bound, per cent of control: 100%
CAMK2A (human)
  kinase still bound, per cent of control: 100%
PIM3 (human)
  kinase still bound, per cent of control: 100%
NEK2 (human)
  kinase still bound, per cent of control: 100%
AKT3 (human)
  kinase still bound, per cent of control: 100%
SIK1 (human)
  kinase still bound, per cent of control: 100%
NUAK2 (human)
  kinase still bound, per cent of control: 100%
FGFR4 (human)
  kinase still bound, per cent of control: 100%
MYO3A (human)
  kinase still bound, per cent of control: 100%
AKT2 (human)
  kinase still bound, per cent of control: 100%
MYLK4 (human)
  kinase still bound, per cent of control: 100%
CSNK1G2 (human)
  kinase still bound, per cent of control: 100%
IKBKB (human)
  kinase still bound, per cent of control: 100%
GSK3A (human)
  kinase still bound, per cent of control: 20%
MAPK10 (human)
  kinase still bound, per cent of control: 100%
STK35 (human)
  kinase still bound, per cent of control: 100%
ACVR1 (human)
  kinase still bound, per cent of control: 100%
CLK2 (human)
  kinase still bound, per cent of control: 0.3%
STK4 (human)
  kinase still bound, per cent of control: 100%
STK24 (human)
  kinase still bound, per cent of control: 100%
CDK19 (human)
  kinase still bound, per cent of control: 100%
PIP5K1A (human)
  kinase still bound, per cent of control: 100%
BMPR1B (human)
  kinase still bound, per cent of control: 100%
PKMYT1 (human)
  kinase still bound, per cent of control: 100%
FES (human)
  kinase still bound, per cent of control: 100%
PTK2 (human)
  kinase still bound, per cent of control: 100%
EPHA6 (human)
  kinase still bound, per cent of control: 100%
NLK (human)
  kinase still bound, per cent of control: 100%
MERTK (human)
  kinase still bound, per cent of control: 100%
EPHB4 (human)
  kinase still bound, per cent of control: 100%
LCK (human)
  kinase still bound, per cent of control: 100%
